Measured values as given in publication PMC4119213 (Translational Psychiatry, 2014).

Assays:
[1] = target: rKOR (rat κ-opioid receptor) (Rattus norvegicus, UniProt P34975); assay: BRET CAMYEL cAMP assay, HEK-293T; type: cell-based
[2] = target: hMOR (human μ-opioid receptor) (Homo sapiens, UniProt P35372); assay: radioligand displacement
[3] = target: KOR (human κ-opioid receptor, PDSP binding) (Homo sapiens, UniProt P41145); assay: radioligand displacement; details: n=4
[4] = target: hDOR (human δ-opioid receptor) (Homo sapiens, UniProt P41143); assay: radioligand displacement
Chain of hDOR (human δ-opioid receptor) (P41143 whole entry): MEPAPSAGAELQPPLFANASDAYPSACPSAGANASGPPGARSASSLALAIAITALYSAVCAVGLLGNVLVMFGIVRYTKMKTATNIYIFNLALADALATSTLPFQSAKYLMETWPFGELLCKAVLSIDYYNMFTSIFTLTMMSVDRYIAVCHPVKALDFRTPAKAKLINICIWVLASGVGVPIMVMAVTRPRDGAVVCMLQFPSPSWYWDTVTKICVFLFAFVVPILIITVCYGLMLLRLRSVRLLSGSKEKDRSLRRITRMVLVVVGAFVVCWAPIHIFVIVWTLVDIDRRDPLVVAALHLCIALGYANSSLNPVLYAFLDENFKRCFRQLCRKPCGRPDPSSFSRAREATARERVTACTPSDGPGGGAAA

[5] = target: mDOR (mouse δ-opioid receptor) (Mus musculus, UniProt P32300); assay: BRET G-protein activation, HEK-293T; type: cell-based
Chain of mDOR (mouse δ-opioid receptor) (P32300 whole entry): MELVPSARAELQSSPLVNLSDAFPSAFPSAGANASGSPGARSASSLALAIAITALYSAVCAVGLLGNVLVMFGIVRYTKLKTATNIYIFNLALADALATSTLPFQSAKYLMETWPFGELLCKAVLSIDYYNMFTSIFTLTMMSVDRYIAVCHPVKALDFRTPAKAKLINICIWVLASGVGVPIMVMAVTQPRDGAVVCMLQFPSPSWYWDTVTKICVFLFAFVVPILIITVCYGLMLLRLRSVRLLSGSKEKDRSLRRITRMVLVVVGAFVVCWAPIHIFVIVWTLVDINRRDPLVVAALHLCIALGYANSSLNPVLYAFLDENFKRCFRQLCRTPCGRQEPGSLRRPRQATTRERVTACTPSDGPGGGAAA

Chain of KOR (human κ-opioid receptor, PDSP binding) (P41145 whole entry): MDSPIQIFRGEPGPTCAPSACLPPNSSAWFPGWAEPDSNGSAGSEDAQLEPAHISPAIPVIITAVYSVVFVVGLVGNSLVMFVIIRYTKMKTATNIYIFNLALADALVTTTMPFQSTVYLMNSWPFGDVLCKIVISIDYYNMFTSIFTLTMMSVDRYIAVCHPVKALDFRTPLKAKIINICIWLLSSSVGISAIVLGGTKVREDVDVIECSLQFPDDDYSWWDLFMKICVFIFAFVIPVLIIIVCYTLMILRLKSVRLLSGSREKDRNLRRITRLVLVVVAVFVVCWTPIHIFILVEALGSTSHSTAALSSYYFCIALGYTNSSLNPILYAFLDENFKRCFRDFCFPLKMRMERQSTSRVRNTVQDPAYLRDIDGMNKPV
Chain of rKOR (rat κ-opioid receptor) (P34975 whole entry): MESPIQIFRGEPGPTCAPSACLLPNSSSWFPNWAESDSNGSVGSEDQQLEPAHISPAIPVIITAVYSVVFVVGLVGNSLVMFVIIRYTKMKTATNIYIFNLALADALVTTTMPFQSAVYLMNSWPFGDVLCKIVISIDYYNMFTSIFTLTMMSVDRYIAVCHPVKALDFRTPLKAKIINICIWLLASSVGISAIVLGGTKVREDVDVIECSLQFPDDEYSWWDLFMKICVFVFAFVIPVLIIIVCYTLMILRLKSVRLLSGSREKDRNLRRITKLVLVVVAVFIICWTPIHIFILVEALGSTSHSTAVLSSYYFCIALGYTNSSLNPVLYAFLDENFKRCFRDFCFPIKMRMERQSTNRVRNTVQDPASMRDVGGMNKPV
Chain of hMOR (human μ-opioid receptor) (P35372 whole entry): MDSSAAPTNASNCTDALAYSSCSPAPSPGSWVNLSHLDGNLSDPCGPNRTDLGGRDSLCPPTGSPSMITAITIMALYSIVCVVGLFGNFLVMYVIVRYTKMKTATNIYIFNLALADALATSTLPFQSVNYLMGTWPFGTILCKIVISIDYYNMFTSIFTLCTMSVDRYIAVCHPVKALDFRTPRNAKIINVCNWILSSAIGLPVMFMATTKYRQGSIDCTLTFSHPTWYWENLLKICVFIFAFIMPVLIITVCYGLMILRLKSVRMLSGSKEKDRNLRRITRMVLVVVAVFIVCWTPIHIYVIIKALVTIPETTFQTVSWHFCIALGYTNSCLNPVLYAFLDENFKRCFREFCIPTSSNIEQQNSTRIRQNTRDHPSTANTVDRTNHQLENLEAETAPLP

| Compound | IC50 [1] [µM] | Ki [2] [µM] | Ki [3] | Ki [4] [µM] | EC50 [5] [µM] |
| --- | --- | --- | --- | --- | --- |
| Oc1ccc2c3c1O[C@H]1c4[nH]c5c(c4C[C@@]4(O)[C@@H](C2)N(CC2CC2)CC[C@]314)C[C@@]1(O)[C@H]2Cc3ccc(O)c4c3[C@@]1(CCN2CC1CC1)[C@H]5O4 [nor-binaltorphimine] | 0.0281 ± 0.0272 |  |  |  |  |
| CN1c2ccccc2C(NCCCCCCC(=O)O)c2ccc(Cl)cc2S1(=O)=O (centres unmarked) [tianeptine] |  | 0.383 ± 0.183 | Kis were determined at MOR, as well as at DOR and KOR | > 10 | 14.5 ± 6.6 |
